Literature values, collected in PubChem BioAssay AID1259410 (Chemical Carcinogenesis Research Information System (CCRIS), 2018).

Test system: rodent tumor promotion studies, tumor incidence
Assay: CCRIS tumor promotion studies

In the case of CCO, the outcome (Carcinogen: 1,2-DIMETHYLHYDRAZINE [540-73-8], Doses [Carcinogen]: 21 MG/KG WEEKLY FOR 18 WKS, Doses [Promoter]: 1.23 G/KG ADDED TO DRINKING WATER DAILY FOR 25-27 WKS, Route [Carcinogen]: SUBCUTANEOUS, Route [Promoter]: ORAL (DRINKING WATER), Species: RAT, Strain/Sex: SPRAGUE-DAWLEY/MALE, FEMALE) is given as “negative”, the outcome (Carcinogen: 1,2-DIMETHYLHYDRAZINE, 540-73-8, Doses [Carcinogen]: 30 MG/KG BW 1/WK FOR 4 WK, Doses [Promoter]: 0, 6.6% OF LIQUID DIET BEGINNING 4 WK PRIOR TO CARCINOGEN TREATMENT LIQUID DIETS SUSPENDED FOR 3 WK DURING CARCINOGEN TR, Route [Carcinogen]: SUBCUTANEOUS, Route [Promoter]: ORAL, Species: RAT, Strain/Sex: SPRAGUE-DAWLEY/MALE) is given as “rectum: tumors” and the outcome (Carcinogen: 4-(METHYLNITROSAMINO)-1-(3-PYRIDYL)-1-BUTANONE, 64091-91-4, Doses [Carcinogen]: 0, 50 MG/KG IN DISTILLED WATER ADMINISTERED INTRATRACHEALLY TO MOTHERS ON DAY 15 OF GESTATION, Doses [Promoter]: 10% IN DRINKING WATER ADMINISTERED IN DRINKING WATER TO MOTHERS ON DAYS 5 THROUGH 16 OF PREGNANCY (STUDY DURATION: 48 WK, Route [Carcinogen]: TRANSPLACENTAL, Route [Promoter]: TRANSPLACENTAL, Species: HAMSTER, Strain/Sex: SYRIAN/FEMALE) is given as “nasal cavity: tumor; pancreas: tumor; adrenal gland: tumor”. For the same molecule, the outcome (Carcinogen: 4-(METHYLNITROSAMINO)-1-(3-PYRIDYL)-1-BUTANONE, 64091-91-4, Doses [Carcinogen]: 0, 50 MG/KG IN DISTILLED WATER ADMINISTERED INTRATRACHEALLY TO MOTHERS ON DAY 15 OF GESTATION, Doses [Promoter]: 10% IN DRINKING WATER ADMINISTERED IN DRINKING WATER TO MOTHERS ON DAYS 5 THROUGH 16 OF PREGNANCY (STUDY DURATION: 48 WK, Route [Carcinogen]: TRANSPLACENTAL, Route [Promoter]: TRANSPLACENTAL, Species: HAMSTER, Strain/Sex: SYRIAN/MALE) was “pancreas: tumor; adrenal gland: tumor”, the outcome (Carcinogen: 4-(METHYLNITROSAMINO)-1-(3-PYRIDYL)-1-BUTANONE, 64091-91-4, Doses [Carcinogen]: 20 MMOL/KG (TOTAL DOSE) 3/WK FOR 4 WK, Doses [Promoter]: 0, 7% (V/V) IN LIQUID DIET FOR 50 WK BEGINNING 1 WK POST CARCINOGEN TREATMENT (STUDY DURATION: 55 WK), Route [Carcinogen]: GAVAGE, Route [Promoter]: ORAL, Species: RAT, Strain/Sex: F344/MALE) was “esophagus: tumor; oral cavity: tumor; lung: tumor” and the outcome (Carcinogen: 7,12-DIMETHYLBENZ[A]ANTHRACENE, 57-97-6, Doses [Carcinogen]: 1% PAINTED ON RIGHT BUCCAL POUCH 1/2 D FOR 1 WK, Doses [Promoter]: 0, 5% IN LIQUID DIET BEGINNING 1 WK POST CARCINOGEN TREATMENT AND CONTINUING FOR 35 WK (STUDY DURATION: 35 WK), Route [Carcinogen]: MUCOUS MEMBRANE, Route [Promoter]: ORAL, Species: HAMSTER, Strain/Sex: SYRIAN/MALE) was “buccal pouch: epidermoid carcinoma”. The outcome (Carcinogen: 17ALPHA-ETHYNYLESTRADIOL, 57-63-6, NORETHINDRONE ACETATE, 51-98-9, Carcinogen: 17ALPHA-ETHYNYLESTRADIOL, 57-63-6, NORETHINDRONE ACETATE, 51-98-9, Doses [Carcinogen]: 0.075 MG EE AND 6 MG NA IN 0.5 ML OLIVE OIL 1/D FOR 12 MO, Doses [Promoter]: 0, 10% IN DRINKING WATER 5 D/WK FOR 12 MO (STUDY DURATION: 12 MO), Route [Carcinogen]: GAVAGE, GAVAGE, Route [Promoter]: ORAL, Species: RAT, Strain/Sex: WISTAR/FEMALE) was “liver: hepatocellular carcinoma”, the outcome (Carcinogen: DIETHYLNITROSAMINE, 55-18-5, Doses [Carcinogen]: 33, 50 PPM IN DRINKING WATER FOR 8 WK, Doses [Promoter]: 10% IN DRINKING WATER FOR 8 WK ADMINISTERED WITH CARCINOGEN (STUDY DURATION: 104 WK), Route [Carcinogen]: ORAL, Route [Promoter]: ORAL, Species: RAT, Strain/Sex: F344/MALE) was “esophagus: papilloma or carcinoma” and the outcome (Carcinogen: Diethylnitrosamine, 55-18-5, Doses [Carcinogen]: 40 mg/l for 4 consecutive d/wk for 180 days, study duration 180 d, Doses [Promoter]: 6%, 3 d /wk for 180 d, study duration 180 d, Route [Carcinogen]: Oral (drinking water), Route [Promoter]: Oral (drinking water), Species: Mouse, Strain/Sex: CF1/Female (16, 47/Group)) was “stomach: squamous cell carcinoma (33% vs 30%); adenocarcinoma (17% vs 15%); both”. For the same molecule, the outcome (Carcinogen: METHYLAZOXYMETHANOL ACETATE, 592-62-1, Doses [Carcinogen]: 25 MG/KG IN SALINE 1/WK FOR 2 WK, Doses [Promoter]: 0.10% IN DRINKING WATER FOR 393 D BEGINNING 1 WK POST CARCINOGEN DOSE (STUDY DURATION: 414 D), Route [Carcinogen]: INTRAPERITONEAL, Route [Promoter]: ORAL, Species: RAT, Strain/Sex: ACI/MALE) was “large intestine: adenoma, adenocarcinoma”, the outcome (Carcinogen: N6-(METHYLNITROSO)ADENOSINE, 21928-82-5, Doses [Carcinogen]: 180 MG/KG 3/WK FOR 12 WK, Doses [Promoter]: 0, 15% 3/WK FOR 12 WK ADMINISTERED WITH CARCINOGEN (STUDY DURATION: 18 MO), Route [Carcinogen]: GAVAGE, Route [Promoter]: GAVAGE, Species: MOUSE, Strain/Sex: SWISS/FEMALE) was “thymus: lymphoma” and the outcome (Carcinogen: N'-NITROSONORNICOTINE, 16543-55-8, Doses [Carcinogen]: 40 MMOL/KG (TOTAL DOSE) 3/WK FOR 4 WK, Doses [Promoter]: 0, 7% (V/V) IN LIQUID DIET FOR 50 WK BEGINNING 1 WK POST CARCINOGEN TREATMENT (STUDY DURATION: 55 WK), Route [Carcinogen]: GAVAGE, Route [Promoter]: ORAL, Species: RAT, Strain/Sex: F344/MALE) was “esophagus: tumor; oral cavity: tumor; lung: tumor”.
